Laboratory results: US8680012B2, “4-phenyl-pyrane-3,5-diones,4-phenyl-thiopyrane-3,6-diones and cyclohexanetriones as novel herbicides” (Syngenta Crop Protection LLC, priority 2006, dated 2014)

Assays:
Format in all cases: in vivo
[1] = system: Alopecurus myosuroides (ALOMY); assay: Example B pre-emergence herbicidal activity, glasshouse pot test; details: 312 h, rate 250 g/ha, evaluated after 13 days, read-out: Pre-emergence activity ALOMY (100=total damage to plant; 0=no damage to plant)
Summary of the method: (§1)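 Visual injury score (0 none to 100 total plant damage) recorded 13 days after spraying. Plants received an aqueous spray of compound in 50:50 acetone/water with 0.5% Tween 20, either one day after sowing or after eight days of cultivation, in pots kept under controlled glasshouse conditions.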

[2] = system: Amaranthus retroflexus (AMARE); assay: as above; details: 312 h, rate 250 g/ha, evaluated after 13 days, read-out: Pre-emergence activity AMARE (100=total damage to plant; 0=no damage to plant)
Summary of the method: as §1

[3] = system: Avena fatua (AVEFA); assay: as above; details: 312 h, rate 250 g/ha, evaluated after 13 days, read-out: Pre-emergence activity AVEFA (100=total damage to plant; 0=no damage to plant)
Summary of the method: as §1

[4] = system: Echinochloa crus-galli (ECHCG); assay: as above; details: 312 h, rate 250 g/ha, evaluated after 13 days, read-out: Pre-emergence activity ECHCG (100=total damage to plant; 0=no damage to plant)
Summary of the method: as §1

[5] = system: Setaria faberi (SETFA); assay: as above; details: 312 h, rate 250 g/ha, evaluated after 13 days, read-out: Pre-emergence activity SETFA (100=total damage to plant; 0=no damage to plant)
Summary of the method: as §1

[6] = system: Alopecurus myosuroides (ALOMY); assay: Example B post-emergence herbicidal activity, glasshouse pot test; details: 312 h, rate 250 g/ha, evaluated after 13 days, read-out: Post-emergence activity ALOMY (100=total damage to plant; 0=no damage to plant)
Summary of the method: as §1

[7] = system: Amaranthus retroflexus (AMARE); assay: as above; details: 312 h, rate 250 g/ha, evaluated after 13 days, read-out: Post-emergence activity AMARE (100=total damage to plant; 0=no damage to plant)
Summary of the method: as §1

[8] = system: Avena fatua (AVEFA); assay: as above; details: 312 h, rate 250 g/ha, evaluated after 13 days, read-out: Post-emergence activity AVEFA (100=total damage to plant; 0=no damage to plant)
Summary of the method: as §1

[9] = system: Echinochloa crus-galli (ECHCG); assay: as above; details: 312 h, rate 250 g/ha, evaluated after 13 days, read-out: Post-emergence activity ECHCG (100=total damage to plant; 0=no damage to plant)
Summary of the method: as §1

[10] = system: Setaria faberi (SETFA); assay: as above; details: 312 h, rate 250 g/ha, evaluated after 13 days, read-out: Post-emergence activity SETFA (100=total damage to plant; 0=no damage to plant)
Summary of the method: as §1

Structure (SMILES)	pest or weed control at 250 g/ha [1] [%]	pest or weed control at 250 g/ha [2] [%]	pest or weed control at 250 g/ha [3] [%]	pest or weed control at 250 g/ha [4] [%]	pest or weed control at 250 g/ha [5] [%]	pest or weed control at 250 g/ha [6] [%]	pest or weed control at 250 g/ha [7] [%]	pest or weed control at 250 g/ha [8] [%]	pest or weed control at 250 g/ha [9] [%]	pest or weed control at 250 g/ha [10] [%]
CCc1ccc(-c2ccc(OC(F)F)cc2)cc1C1=C(O)C(C)(C)OC(C)(C)C1=O [Compound A-151]	100	0	100	100	100	100	0	100	100	100
CCc1ccc(-c2cc(F)c(Cl)c(F)c2)cc1C1=C(O)C(C)(C)OC(C)(C)C1=O [Compound A-152]	70	0	90	100	100	100	0	100	100	100
CCc1ccc(-c2ccc(Cl)c(F)c2F)cc1C1=C(O)C(C)(C)OC(C)(C)C1=O [Compound A-153]	60	0	50	100	100	100	30	100	100	100
CCc1ccc(-c2ccc(Cl)c(C(F)(F)F)c2F)cc1C1=C(O)C(C)(C)OC(C)(C)C1=O [Compound A-154]	50	0	20	100	90	100	0	70	100	100
CCc1ccc(-c2ccc(Cl)c(Cl)c2F)cc1C1=C(O)C(C)(C)OC(C)(C)C1=O [Compound A-155]	50	0	0	100	100	100	40	90	100	100
Cc1ccc(-c2ccc(Cl)cc2Cl)cc1C1=C(O)C(C)(C)SC(C)(C)C1=O [Compound C-6]	0	0	0	0	0	20	40	0	60	30
Cc1ccc(-c2ccc(Cl)cc2Cl)cc1C1=C(O)C(C)(C)S(=O)(=O)C(C)(C)C1=O [Compound C-8]	0	0	0	0	0	20	0	0	60	40
CCc1ccc(-c2ccc(Cl)cc2Cl)cc1C1=C(O)C(C)(C)S(=O)(=O)C(C)(C)C1=O [Compound C-11]	0	0	80	0	0	70	20	60	80	30
CCc1ccc(-c2ccc(Cl)c(F)c2)cc1C1=C(O)C(C)(C)[S+]([O-])C(C)(C)C1=O (stereo not shown) [Compound C-12]	0	0	90	20	90	80	0	90	90	90
CCc1ccc(-c2ccc(Cl)c(F)c2)cc1C1=C(O)C(C)(C)S(=O)(=O)C(C)(C)C1=O [Compound C-13]	20	0	90	30	80	80	20	90	100	100
CCc1ccc(-c2ccc(Cl)nc2)cc1C1=C(OC(C)=O)C(C)(C)OC(C)(C)C1=O [Compound D-22]	60	0	50	100	100	90	0	100	100	100
CCc1ccc(-c2ccc(Cl)cc2Cl)cc1C1=C(OC(C)=O)C(C)(C)OC(C)(C)C1=O [Compound D-23]	0	0	0	100	90	0	0	0	100	90
CCc1ccc(-c2ccc(Cl)cc2Cl)cc1C1=C(OC(=O)COC)C(C)(C)OC(C)(C)C1=O [Compound D-24]	0	20	0	100	90	0	0	20	100	100
CCC(=O)OC1=C(c2cc(-c3ccc(Cl)cc3Cl)ccc2CC)C(=O)C(C)(C)OC1(C)C [Compound D-25]	20	0	0	90	90	0	0	20	90	90
CC(=O)OC1=C(c2cc(-c3ccc(Cl)cn3)ccc2C)C(=O)C(C)(C)OC1(C)C [Compound D-28]	30	0	40	20	80	80	0	50	90	80
CCc1ccc(-n2cnc(Cl)c2Cl)cc1C1=C(OC(=O)OC)C(C)(C)OC(C)(C)C1=O [Compound D-32]	20	0	80	60	80	50	0	70	90	80
